Reference: patent US20210040074A1 (The United States of America,as represented by the …, priority 2018, published 2021)

Tests used:
D5 [1] = biological target: T1, D5 (Homo sapiens, UniProt P21918); assay: D5 cAMP assay; settings: fold change of dopamine EC50, 50 μM compound
D5 [2] = biological target: T1, D5; assay: D5R β-arrestin recruitment assay (DiscoverX PathHunter, CHO cells); assay type: cell-based; parameters: host or cells: CHO-K1; settings: fold change of dopamine EC50, 50 μM compound
Method: (§1) β-arrestin Recruitment Assay. […] Following 18-24 h of incubation, the cells were treated with the indicated concentrations of compound in PBS buffer containing 0.2 mM sodium metabisulfite, and incubated at 37° C. for 90 min. DiscoverX reagent was added to cells according to the manufacturer's protocol, followed by a 60 min incubation in the dark at room temperature. Luminescence was measured on a Hamamatsu FDSS μ-Cell reader (Hamamatsu, Bridgewater, N.J.) and data were collected using the FDSS software.
Each PAM was also examined in the absence of DA as an agonist, as indicated.

human D1R [3] = biological target: T2, human D1R (Homo sapiens, UniProt P21728); assay: D1 cAMP accumulation assay (D1R-HEK293 cells, DiscoverX HitHunter); settings: fold change of dopamine EC50, 50 μM compound
Method: cAMP Accumulation Assay. Assays were performed on D1R-HEK293 (Codex Biosolutions, Gaithersburg, Md.) cells stably expressing the human D1R. HEK293 cell lines were maintained in Dulbecco's modified Eagles medium, supplemented with 10% fetal bovine serum, 100 U/ml penicillin, 100 μg/ml streptomycin, 1 mM sodium pyruvate, and 250 μg/ml G418 and incubated at 37° C., 5% CO2, and 90% humidity. […] After 18-24 h incubation at 37° C., 5% CO2, and 90% humidity, the media was removed and replaced with 5 μL/well PBS. […] Briefly, antibody and working solution was added to each well according to the manufacturer's protocol, and incubated in the dark at room temperature for 60 min. Following incubation, enzyme acceptor reagent was added to the plates and luminescence (RLU) was measured (FDSS μCell, Hamamatsu Photonics K. K., Bridgewater, N.J.) following a 3 h incubation in the dark at room temperature.

human D1R [4] = biological target: T2, human D1R; assay: D1R β-arrestin recruitment assay (DiscoverX PathHunter, CHO-K1 cells); settings: fold change of dopamine EC50, 50 μM compound
Source text: The DiscoverX PathHunter β-Arrestin Assay was used to measure β-arrestin reuitment to the D1R following the manufacturer's instructions.

D4R = biological target: T3, D4R (Homo sapiens, UniProt P21917); assay: D4 β-arrestin recruitment assay (DiscoverX PathHunter, CHO-K1 cells); assay type: cell-based; parameters: inferred from the same PathHunter system described for D1R and D5R; host or cells: CHO-K1; settings: fold change of dopamine EC50, 50 μM compound
T3 sequence (P21917 1-419): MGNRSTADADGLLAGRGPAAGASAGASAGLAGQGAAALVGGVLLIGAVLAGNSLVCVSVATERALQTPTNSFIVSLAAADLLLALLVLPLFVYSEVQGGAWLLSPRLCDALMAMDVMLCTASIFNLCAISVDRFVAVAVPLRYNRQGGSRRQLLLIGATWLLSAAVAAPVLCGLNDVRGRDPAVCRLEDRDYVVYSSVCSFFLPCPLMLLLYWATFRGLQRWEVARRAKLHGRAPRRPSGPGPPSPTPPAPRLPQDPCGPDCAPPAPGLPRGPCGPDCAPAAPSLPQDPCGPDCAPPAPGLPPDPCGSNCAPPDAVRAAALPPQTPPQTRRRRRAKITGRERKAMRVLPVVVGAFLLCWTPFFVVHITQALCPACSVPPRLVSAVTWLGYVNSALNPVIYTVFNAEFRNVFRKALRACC
Method: as §1, with “Assay. Agonist-mediated recruitment of β-arrestin-2 to all five DARs was determined using the DiscoveRx PathHunter complementation assay (DiscoverX Inc, Fremont, Calif.), as previously described (Free, et. al., 2014; Conroy, et. al., 2015).” for “Assay.”

D2R = D2R (Homo sapiens, UniProt P14416); assay: D2R β-arrestin BRET assay; settings: dopamine alone; mean ± SEM
Method: (§2) Bioluminescence Resonance Energy Transfer (BRET) Assays. Experiments were performed in HEK239 cells transiently transfected with D1R-RLuc8 and β-arrestin-mVenus (β-arrestin BRET) or Gαs-mVenus+β1+γ2 (Gs BRET) using the polyethylenimine (PEI) transfection method. […] Appropriate amounts of DNA were combined with 3 μg/μL PEI per μg of DNA in nonsupplemented DMEM and incubated with the cells overnight. Experiments were performed 48 hours post-transfection. On experiment day, cells were collected and resuspended in Dulbecco's Phosphate-Buffered Saline (DPBS) with Ca2+ and Mg2++0.2 mM sodium metabisulfite+5.5 mM glucose.

β2AR = β2AR (Homo sapiens, UniProt P07550); assay: β2AR β-arrestin BRET assay; settings: epinephrine alone; mean ± SEM
Chain of β2AR (P07550 whole entry): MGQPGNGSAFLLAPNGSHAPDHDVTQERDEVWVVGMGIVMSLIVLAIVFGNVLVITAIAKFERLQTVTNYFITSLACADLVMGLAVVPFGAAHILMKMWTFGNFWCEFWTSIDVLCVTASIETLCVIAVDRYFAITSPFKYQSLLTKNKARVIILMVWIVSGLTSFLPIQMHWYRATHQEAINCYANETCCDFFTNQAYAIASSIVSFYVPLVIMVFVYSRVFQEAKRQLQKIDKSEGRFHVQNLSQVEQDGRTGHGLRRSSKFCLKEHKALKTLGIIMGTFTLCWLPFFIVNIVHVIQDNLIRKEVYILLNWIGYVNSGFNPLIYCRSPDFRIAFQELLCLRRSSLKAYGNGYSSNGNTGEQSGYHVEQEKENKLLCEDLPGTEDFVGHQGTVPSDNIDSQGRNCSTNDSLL
Method: as §2

T2 sequence (P21728 whole entry): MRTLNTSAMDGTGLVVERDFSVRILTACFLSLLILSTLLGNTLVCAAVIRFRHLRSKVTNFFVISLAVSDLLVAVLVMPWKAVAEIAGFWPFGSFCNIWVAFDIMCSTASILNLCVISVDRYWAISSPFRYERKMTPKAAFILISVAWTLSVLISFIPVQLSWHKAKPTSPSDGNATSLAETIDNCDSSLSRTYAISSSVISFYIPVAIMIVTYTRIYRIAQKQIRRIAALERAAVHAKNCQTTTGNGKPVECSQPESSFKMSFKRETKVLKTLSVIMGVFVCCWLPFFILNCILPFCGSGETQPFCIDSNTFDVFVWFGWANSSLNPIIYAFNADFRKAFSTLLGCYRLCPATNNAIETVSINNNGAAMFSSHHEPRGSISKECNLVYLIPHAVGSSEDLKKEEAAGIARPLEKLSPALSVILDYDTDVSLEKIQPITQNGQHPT
T1 sequence (P21918 whole entry): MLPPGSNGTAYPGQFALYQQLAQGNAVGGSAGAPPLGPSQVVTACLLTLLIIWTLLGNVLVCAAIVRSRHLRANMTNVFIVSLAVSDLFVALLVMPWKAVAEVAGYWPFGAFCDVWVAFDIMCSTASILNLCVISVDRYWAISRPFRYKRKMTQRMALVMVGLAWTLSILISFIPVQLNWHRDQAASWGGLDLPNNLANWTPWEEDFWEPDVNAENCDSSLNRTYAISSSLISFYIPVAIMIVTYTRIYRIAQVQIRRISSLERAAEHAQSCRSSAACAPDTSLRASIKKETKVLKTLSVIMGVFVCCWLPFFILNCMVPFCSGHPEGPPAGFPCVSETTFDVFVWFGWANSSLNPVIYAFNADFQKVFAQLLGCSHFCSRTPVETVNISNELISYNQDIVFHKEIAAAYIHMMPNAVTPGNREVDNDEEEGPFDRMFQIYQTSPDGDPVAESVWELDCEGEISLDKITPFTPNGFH
Chain of D2R (P14416 whole entry): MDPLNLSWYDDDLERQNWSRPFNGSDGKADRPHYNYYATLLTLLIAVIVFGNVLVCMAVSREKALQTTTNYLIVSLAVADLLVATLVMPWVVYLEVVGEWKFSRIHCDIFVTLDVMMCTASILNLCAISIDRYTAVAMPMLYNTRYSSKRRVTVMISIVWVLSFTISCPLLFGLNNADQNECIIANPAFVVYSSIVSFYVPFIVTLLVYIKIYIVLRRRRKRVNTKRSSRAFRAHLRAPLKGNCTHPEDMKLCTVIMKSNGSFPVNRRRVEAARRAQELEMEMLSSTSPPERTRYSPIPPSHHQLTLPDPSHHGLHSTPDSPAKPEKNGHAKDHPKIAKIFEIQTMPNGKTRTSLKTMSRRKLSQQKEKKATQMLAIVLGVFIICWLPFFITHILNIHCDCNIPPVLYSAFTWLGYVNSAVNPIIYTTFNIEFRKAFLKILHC

Row | SMILES | D5 cAMP: DA + 50 μM PAM, Fold Change EC50 (D5 [1]) | D5 Beta-Arrestin: DA + 50 μM PAM, Fold Change EC50 (D5 [2]) | D1 cAMP: DA + 50 μM PAM, Fold Chg EC50 (human D1R [3]) | D1 Beta-Arrestin: DA + 50 μM PAM, Fold Chg EC50 (human D1R [4]) | D4 Beta-Arrestin: DA + 50 μM PAM, Fold Change EC50 (D4R) | D2R Agonist Emax (% Ctrl) (D2R) | β2AR Agonist Emax (% Ctrl) (β2AR)
1 | COc1ccc(-n2c(CC3CCCCC3)nc3c(c(=O)c4ccccc4n3C)c2=O)cc1 [Compound 16] | 0.67 | 0.73 | 0.34 | 0.45 | 1.45 |  | 
2 | Cn1c2ccccc2c(=O)c2c(=O)n(-c3ccccc3)c(CC3CCCCC3)nc21 [Compound 20] | 1.30 | 2.38 |  |  | 2.14 |  | 
3 | CC(C)Cc1nc2c(c(=O)c3ccccc3n2C)c(=O)n1-c1ccccc1 [Compound 21] | 2.22 | 4.56 |  |  | 0.62 |  | 
4 | Cn1c2ccccc2c(=O)c2c(=O)n(-c3cccc(Cl)c3)c(CC3CCCCC3)nc21 [Compound 22] | 0.73 | 1.40 |  |  | 1.67 |  | 
5 | Cn1c2ccccc2c(=O)c2c(=O)n(-c3ccccc3)c(C3CC3)nc21 [Compound 23] | 0.57 | 2.58 |  |  | 1.32 |  | 
6 | Cn1c2ccccc2c(=O)c2c(=O)n(-c3ccccc3)c(C3CCCC3)nc21 [Compound 24] | 1.26 | 4.16 |  |  | 1.26 |  | 
7 | NCCc1ccc(O)c(O)c1 [Dopamine, dopamine, reference compound] |  |  |  |  |  | 100 ± 12.48 % Ctrl | 
8 | CNC[C@H](O)c1ccc(O)c(O)c1 [Epinephrine, epinephrine, reference compound] |  |  |  |  |  |  | 99.9 ± 1.18 % Ctrl

The next lines start with results.

Row | D5 cAMP: DA + 50 μM PAM, Fold Change EC50 (D5 [1]) | D5 Beta-Arrestin: DA + 50 μM PAM, Fold Change EC50 (D5 [2]) | D1 cAMP: DA + 50 μM PAM, Fold Chg EC50 (human D1R [3]) | D1 Beta-Arrestin: DA + 50 μM PAM, Fold Chg EC50 (human D1R [4]) | D4 Beta-Arrestin: DA + 50 μM PAM, Fold Change EC50 (D4R) | D2R Agonist Emax (% Ctrl) (D2R) | SMILES | β2AR Agonist Emax (% Ctrl) (β2AR)
9 | 0.66 | 1.68 | 1.30 | 1.05 | 1.20 |  | CC(C)(C)C1CCc2c(sc(NC(=O)c3cncc(Br)c3)c2C(N)=O)C1 (stereo not shown) [Compound 29] | 
10 | 0.60 | 0.48 | 1.31 | 1.05 | 0.43 |  | CC(C)(C)C1CCc2c(sc(NC(=O)c3ccccn3)c2C(N)=O)C1 (stereo not shown) [Compound 30] | 
11 | 0.45 | 0.83 | 1.20 | 1.35 | 1.34 |  | CC1CCc2c(sc(NC(=O)c3ccc4ccccc4n3)c2C(N)=O)C1 (stereo not shown) [Compound 31] | 
12 | 1.25 | 0.92 | 1.28 | 0.77 | 0.73 |  | CC(C)(C)C1CCc2c(sc(NC(=O)c3ccc4ccccc4n3)c2C(N)=O)C1 (stereo not shown) [Compound 32] | 
13 | 1.57 | 1.86 | 1.53 | 0.97 | 0.81 |  | CC1CCc2c(sc(NC(=O)c3ccncc3)c2C(N)=O)C1 (stereo not shown) [Compound 33] | 
14 | 1.45 | 1.28 | 1.30 | 0.61 | 0.96 |  | CN1CCc2c(sc(NC(=O)c3ccncc3)c2C#N)C1 [Compound 34] | 
15 | 0.76 | 1.06 | 1.79 | 0.97 | 1.07 |  | CC1CCc2c(sc(NC(=O)c3cccnc3)c2C(N)=O)C1 (stereo not shown) [Compound 35] | 
16 | 0.86 | 0.26 | 2.50 | 0.83 | 1.19 |  | NC(=O)c1c(NC(=O)c2ccccn2)sc2c1CCCC2 [Compound 36] | 
17 | 1.64 | 0.47 | 1.61 | 1.05 | 1.06 |  | CC1CCc2c(sc(NC(=O)c3ccccn3)c2C(N)=O)C1 (stereo not shown) [Compound 37] | 
18 |  | 0.78 | 2.29 | 10.35 | 2.26 |  | CC(C)(C)C1CCc2c(sc(NC(=O)c3cccnc3)c2C(N)=O)C1 (stereo not shown) [Compound 38] | 
19 |  | 0.65 | 1.04 | 3.01 | 2.03 |  | CCOC(=O)c1c(NC(=O)c2cccnc2)sc2c1CCC(C(C)(C)C)C2 (stereo not shown) [Compound 39] | 
20 |  | 0.48 | 0.7 | 1.97 | 0.68 |  | NC(=O)c1c(NC(=O)c2cccnc2)sc2c1CCC(c1ccccc1)C2 (stereo not shown) [Compound 40] | 
